Key:
[1] = SOD activity, inhibition of cytochrome C reduction by xanthine plus xanthine oxidase (Example 1); assay type: biochemical; conditions: Example 1, cytochrome C reduction
Procedure: The SOD activity of the compounds was determined by evaluating the inhibition of the reduction of cytochrome C produced by the oxygen free radical generating system, xanthine plus xanthine oxidase. Cytochrome C reduction is monitored spectrophotometrically at 550 nm according to the method described in Darr et al. (1987) Arch. Biochem. Biophys. 258: 351, incorporated herein by reference. The concentration of xanthine oxidase is adjusted such that it produces a rate of reduction of cytochrome C at 550 nm of 0.025 absorbance unit per minute. Under these conditions, the amount of SOD activity required to inhibit the rate of cytochrome C reduction by 50 percent (i.e., to a rate of 0.0125 absorbance unit per minute) is defined as one unit of activity. Salen-metal complexes are identified as antioxidants if they have at least 0.1 unit of activity at a concentration of 1 mM under these standard assay conditions.

[2] = Catalase activity, decomposition of hydrogen peroxide monitored at 240 nm (Example 1); assay type: biochemical; conditions: Example 1, H2O2 decomposition at 240 nm
Procedure: Catalase activity was measured using a spectrophotometric method in which the decomposition of hydrogen peroxide is monitored at 240 nm according to the method of Aebi et al. (1984) Methods Enzymol. 105: 121, incorporated herein by reference. One unit of catalase activity is defined as the amount of enzyme (or salen-metal complex) required to decompose 1 μmole of hydrogen peroxide in one minute.

[3] = system: Human dermal fibroblasts (HF cells); assay: Cell protection assay, glucose/glucose oxidase toxicity, XTT; assay type: cell-based
Procedure: (§1) Human dermal fibroblasts (HF cells) were obtained from the American type tissue Culture Collection at passage 1 and cultured and propagated in a medium (HF medium) consisting of Dulbecco's Modified Eagle's Medium with 4.5 g/l D-glucose, 10% calf serum 4 mM glutamine, 50 units/ml penicillin, and 50 μg/ml streptomycin in a 37° C. humidified incubator equilibrated with 5% CO2. Cells were used at passages 5 or 6 for experiments. For cell protection assays, HF cells were seeded at a density of about 15,000 cells per cm2 onto 96-well culture plates and allowed to grow to confluence. To assess protection tert-butylhydroperoxide (t-BHP) toxicity, confluent cell layers were first treated with the indicated concentrations of test compounds dissolved in HF medium for 18 hr. The medium was then replaced with fresh medium containing test compounds and 0.5 mM tert-butylhydroperoxide (t-BHP) and cells were incubated for another 18 hr. The medium was then removed and replaced with fresh HF medium (100 μl per well) without test compounds or t-BHP. Fifty μl of XTT reagent (Boeringer Mannheim, Inc.), prepared as described by the manufacturer, was then added to each well and the plates returned to the incubator. After 2 hr., the absorbance at 490 nm was measured in a BioRad (Richmond, Calif.) Model 3550 plate-reader, using a reference wavelength of 655 nm. Control cells that had not been exposed to test compounds or toxic agents were included among the samples treated with XTT reagent. Absorbance measurements for blank wells, containing HF medium and XTT reagent but no cells, were also determined. To analyze protection from glucose/glucose oxidase toxicity, confluent cell layers were incubated with HF medium containing glucose oxidase (0.019 units/ml) along with test compounds, as indicated, for 18 hr in the tissue culture incubator. Fresh HF medium was then added and cell viability assessed using the XTT reagent as described above. For both these models, concentrations of toxic agents were selected that were reproducibly completely lethal. Cytotoxicity assessments were routinely confirmed by visual inspection of the cell layers prior to addition of the XTT reagent.
Catalase and peroxidase activities were assayed as described in Example 2. Catalase assays contained 10 μM salen-manganese complex and 10 mM hydrogen peroxide. Peroxidase assays contained 10 μM salen-manganese complex and 0.2 mM hydrogen peroxide. Glucose-glucose oxidase toxicity assays were performed using human dermal fibroblasts as described in Example 2.

[4] = Catalase activity, conversion of H2O2 to oxygen, polarographic oxygen electrode (Example 2); assay type: biochemical
Summary of the method: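 Clark-type oxygen electrode at 25 °C in 50 mM sodium phosphate pH 8.1, 0.9% NaCl, with 10 μM salen-manganese complex and 10 mM H2O2. Initial rates from slope of first ~5 s, corrected for H2O2-alone rate; endpoint O2 as maximal minus pre-substrate baseline.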

[5] = Peroxidase activity, H2O2-dependent oxidation of ABTS (Example 2); assay type: biochemical; conditions: for Peroxidase rate: 10 μM salen manganese complex, 0.2 mM H2O2; for Peroxidase: relative to C7 (C7 = 100)
Summary of the method: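 ABTS oxidation by salen manganese complex (10 μM) with 0.2 mM H2O2 in 50 mM sodium phosphate pH 8.1 (or pH 6.0/7.1 where indicated), 0.9% NaCl, 0.5 mM ABTS, 27±0.2 °C. Oxidized ABTS read spectrophotometrically at 740 or 500 nm and quantified from Δε740 20,300 or Δε500 3400 M^−1cm^−1.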

[6] = SOD activity, xanthine/xanthine oxidase with cytochrome C as acceptor (Example 2); assay type: biochemical; conditions: relative to C7 (C7 = 100)
Summary of the method: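 Superoxide was generated by 120 µM xanthine and 0.2 U/ml xanthine oxidase in 50 mM sodium phosphate pH 7.8 at 27 °C, with salen manganese compounds at ≥4 concentrations in duplicate.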

[7] = Peroxidase activity with t-BHP as substrate, ABTS oxidation; assay type: biochemical
Procedure: Peroxidase activity was assayed by monitoring the hydrogen peroxide-dependent oxidation of 2,2′-azino-bis(3-ethylbenzthiazoline-6) sulfonic acid (ABTS) spectrophotometrically. Standard assay mixtures consisted of 50 mM sodium phosphate, pH 8.1, 0.9% sodium chloride, 0.5 mM ABTS, and H2O2 and salen manganese complex as indicated. Where indicated, 50 mM sodium phosphate buffers of pH 6.0 or pH 7.1 were substituted. Assays were conducted at 27±0.2° C. ABTS oxidation was monitored at 740 or 500 nm to eliminate interference by the salen manganese complexes, many of which absorb in the vicinity of the λmax of oxidized ABTS, and to avoid absorbance values that exceeded the linear range of the spectrophotometer. The amount of oxidized ABTS was estimated using an Δε740 of 20,300 M^−1cm^−1 or an Δε500 of 3400 M^−1cm^−1 calculated based upon the published molar extinction coefficient oat 405 nm (36,800).
(In comparison, horseradish peroxidase utilized t-BHP with an ABTS oxidation rate that was about 5.4% of the rate with H2O2).

[8] = system: brain homogenates; assay: Iron-induced lipid peroxidation in brain homogenates (MDA); assay type: biochemical, rat
Procedure: Lipid peroxidation was induced by incubating a mixture consisting of 0.25 ml homogenate, 0.25 ml ASCF with test compounds, and 10 μM FeCl2 for 1 hr at 35° C. under an atmosphere equilibrated with O2:CO2(95:5). Following the incubation, 0.1 ml of the sample was extracted with trichloroacetic acid and analyzed for thiobarbituric acid reactive material as described previously, using authentic malonyldialdehyde (MDA) as a standard.

[9] = system: Human dermal fibroblasts (HF cells); assay: Cell protection assay, tert-butylhydroperoxide (t-BHP) toxicity, XTT; assay type: cell-based; conditions: for Cell viability, absorbance at 490 nm uncorrected for blank: t-BHP 0.5 mM
Procedure: as §1

[10] = system: brain microsomes; assay: Lipid peroxidation induced in brain microsomes by iron and ascorbate (MDA)
Text: A series of salen-metal complexes were synthesized and their catalytic activities determined. […] FIGS. 24A-24H show structural formulae of further salen-metal compounds which were synthesized and evaluated.

[11] = 10 μM salen manganese complex, 10 mM H2O2

Row | Compound | SOD Activity [1] | Catalase Activity [2] | protection against glucose and glucose oxidase (in words) [3] | Catalase rate [4, 11] | Endpoint [4, 11] | Catalase endpt. ([4]; relative to C7 (C7 = 100)) | Catalase rate ([4]; relative to C7 (C7 = 100)) | Peroxidase rate [5] | Peroxidase [5] | SOD [6] | peroxidase rate with t-BHP relative to C32 [7] | MDA levels, percent of control ([8]; 1 μM) | MDA levels, percent of control ([8]; 5 μM) | MDA levels, percent of control ([8]; 10 μM) | MDA levels, percent of control ([8]; 25 μM) | Cell viability, absorbance at 490 nm uncorrected for blank ([9]; 2.5 μM) | Cell viability, absorbance at 490 nm uncorrected for blank ([9]; 5 μM) | Cell viability, absorbance at 490 nm uncorrected for blank ([9]; 10 μM) | Cell viability, absorbance at 490 nm uncorrected for blank ([9]; 20 μM) | Cell viability, absorbance at 490 nm uncorrected for blank ([9]; 40 μM) | further results
1 | CC(C)(C)c1cc2c(c(C(C)(C)C)c1)[O][Mn]([Cl])[O]c1c(cc(C(C)(C)C)cc1C(C)(C)C)C=NC1CCCCC1N=C2 (centres unmarked) [Compound C10] | 69 units/mM | 179 units/mM | – | – | – | – | – | – | – | – | – | – | – | – | – | – | – | – | – | – | –
2 | CC(C)(C)c1cc(Cl)cc2c1[O][Mn]([Cl])[O]c1c(cc(Cl)cc1C(C)(C)C)C=NC1CCCCC1N=C2 (centres unmarked) [Compound C11] | 101 units/mM | 46 units/mM | – | – | – | – | – | – | – | – | – | – | – | – | – | – | – | – | – | – | –
3 | COc1cc2c(c(C(C)(C)C)c1)[O][Mn]([Cl])[O]c1c(cc(OC)cc1C(C)(C)C)C=NC1CCCCC1N=C2 (centres unmarked) [Compound C12] | 4397 units/mM | 144 units/mM | – | – | – | – | – | – | – | – | – | – | – | – | – | – | – | – | – | – | –
4 | CC(=O)[O][Mn]1[O]c2c(F)cccc2C=NCCN=Cc2cccc(F)c2[O]1 [Compound C36] | – | – | about equally as effective as C7 | 167.5 ± 9.8 μM O2/min | 27.9 ± 2.3 maximal μM O2 | 104 | 128 | 22.2 ± 0.8 μM ABTS oxidized/min | 129 | 104 | about twice as fast as C32 | 95% | 37% | 16% | 4% | 0.28 ± 0.01 | 0.29 ± 0.01 | 1.13 ± 0.05 | 1.44 ± 0.04 | 1.28 ± 0.45 | synergistic toxicity with t-BHP ([9]; 80 μM): possible synergistic toxicity; Cell viability, absorbance at 490 nm uncorrected for blank ([9]; 80 μM): 0.79 ± 0.34
5 | Fc1cccc2c1[O][Mn]([Cl])[O]c1c(F)cccc1C=NCCN=C2 [Compound C37] | – | – | about equally as effective as C7 | 182.6 ± 26.8 μM O2/min | 28.3 ± 0.5 maximal μM O2 | 104 | 117 | 23.3 ± 0.6 μM ABTS oxidized/min | 92 | 115 | about twice as fast as C32 | 94% | 43% | 25% | 8% | 0.28 ± 0.01 | 0.28 ± 0.01 | 1.20 ± 0.06 | 1.42 ± 0.05 | 1.53 ± 0.02 | synergistic toxicity with t-BHP ([9]; 80 μM): possible synergistic toxicity; Cell viability, absorbance at 490 nm uncorrected for blank ([9]; 80 μM): 1.20 ± 0.02
6 | Vitamin E | – | – | – | – | – | – | – | – | – | – | – | – | – | – | – | – | – | – | – | – | inhibition of lipid peroxidation in brain microsomes [10]: inhibition of lipid peroxidation

Source: patent publication US7582786B2, “Synthetic catalytic free radical scavengers useful as antioxidants for prevention and therapy of disease” (Eukarion Inc., priority 1996, dated 2009)
